{
  "source": "patent US20230407373A1",
  "about": "(priority 2020, published 2023)",
  "key": {"HCoV-OC43 gRNA and sgRNA": {"tested_on": "HCoV-OC43 gRNA and sgRNA", "assay_type": "binding"}, "gRNA of HCoV-OC43": {"tested_on": "gRNA of HCoV-OC43", "assay_type": "binding"}},
  "data": [
    {"substance": "SLTM: host protein, UniProt Q9NWH9", "values": [
      {"measurement": "target (unweighted spectral count, OC43 Probe II capture)", "setting": "HCoV-OC43 gRNA and sgRNA; 36 hpi, type n_36_v, tested against no-probe control, FDR<10%", "result": 6},
      {"measurement": "target (unweighted spectral count, OC43 Probe II)", "setting": "HCoV-OC43 gRNA and sgRNA; type n_48_v, 48 hpi, OC43 Probe II capture on infected cells", "result": 8},
      {"measurement": "background (unweighted spectral count, no-probe control)", "setting": "HCoV-OC43 gRNA and sgRNA; type n_48_v, 48 hpi, no-probe control on infected cells", "result": 1},
      {"measurement": "target (spectral count)", "setting": "gRNA of HCoV-OC43; type g_36_m, HCoV-OC43-infected HCT-8 cells, 36 hpi, Probe I", "result": 10},
      {"measurement": "background (spectral count)", "setting": "gRNA of HCoV-OC43; type g_36_m, uninfected-probe control, 36 hpi, Probe I", "result": 1},
      {"measurement": "target (spectral count, OC43 Probe I RNP capture)", "setting": "gRNA of HCoV-OC43; type n_48_v: 48 hours post-infection, infected cells, OC43 Probe I, unweighted spectral count", "result": 11},
      {"measurement": "background (spectral count, no-probe control)", "setting": "gRNA of HCoV-OC43; type n_48_v: 48 hours post-infection, no-probe control on infected cells", "result": 1}
    ]}
  ]
}
